The Kd is a measure of binding affinity in units of concentration. A low value points to higher affinity.

This passage reports Kd results from publication PMC10294657, “The dCache Domain of the Chemoreceptor Tlp1 in Campylobacter jejuni Binds and Triggers Chemotaxis toward Formate” (mBio, 2023).

The target of the experiment is T1, Tlp1 (Cj1506c), Tlp1-LBD (Campylobacter jejuni, UniProt Q0P8B2).
T1 construct: Tlp1-LBD (residues 31 to 326), dCache domain
Kind of experiment: ITC with purified Tlp1-LBD, pH […]°C. Type of experiment: binding.

T1 sequence (Q0P8B2 entry or part of it): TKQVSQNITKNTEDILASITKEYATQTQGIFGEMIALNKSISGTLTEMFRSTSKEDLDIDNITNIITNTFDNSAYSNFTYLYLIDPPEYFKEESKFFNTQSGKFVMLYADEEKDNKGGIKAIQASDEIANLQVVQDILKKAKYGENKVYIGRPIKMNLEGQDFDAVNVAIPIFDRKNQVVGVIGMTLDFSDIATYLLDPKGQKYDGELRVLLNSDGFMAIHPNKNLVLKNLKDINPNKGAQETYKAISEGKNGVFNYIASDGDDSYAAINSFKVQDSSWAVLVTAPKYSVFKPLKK

In turn, `O=CO` [formate] showed a Kd of 245 ± 74 µM.
